Experimental data: the NIST ThermoML archive (doi:10.1021/je800325d)

Key:
[1] = xn = mol fraction of the nth substance listed; settings: 101 kPa, Liquid
[2] = refractive index (Na D-line) (dimensionless); xn = mol fraction of the nth substance listed; settings: 101 kPa, Liquid

CC(=O)OCCC(C)C [3-methylbutyl ethanoate] + CCc1ccccc1
[1]
Settings	mass density, 303.15 K [kg/m3]	mass density, 313.15 K [kg/m3]	viscosity, 303.15 K [mPa·s]	viscosity, 313.15 K [mPa·s]
x1 = 0.0851	856.9	848.8	0.597	0.533
x1 = 0.1684	858	849.1	0.605	0.541
x1 = 0.2613	858.4	849.7	0.615	0.549
x1 = 0.3719	859	850.3	0.629	0.559
x1 = 0.4584	859.6	850.9	0.639	0.567
x1 = 0.538	860.1	851.3	0.649	0.575
x1 = 0.6532	861.1	851.6	0.666	0.588
x1 = 0.7513	861.6	851.8	0.681	0.6
x1 = 0.8475	862	852.1	0.703	0.619
x1 = 0.9401	862.3	852.3	0.726	0.638

refractive index, [2], Standard Abbe refractometry
Settings	x1 = 0.0851	x1 = 0.1684	x1 = 0.2613	x1 = 0.3719	x1 = 0.4584	x1 = 0.538	x1 = 0.6532	x1 = 0.7513	x1 = 0.8475	x1 = 0.9401
303.15 K	1.4802	1.4701	1.4593	1.4471	1.4376	1.4291	1.4177	1.4112	1.4041	1.3983
313.15 K	1.4781	1.4676	1.4565	1.4425	1.4342	1.4276	1.4168	1.4099	1.4035	1.3965

CC(=O)OCCC(C)C [3-methylbutyl ethanoate] + Cc1ccc(C)cc1
[1]
Settings	mass density, 303.15 K [kg/m3]	mass density, 313.15 K [kg/m3]	viscosity, 303.15 K [mPa·s]	viscosity, 313.15 K [mPa·s]
x1 = 0.096	852.4	844.8	0.573	0.517
x1 = 0.1713	853.6	845.9	0.584	0.525
x1 = 0.2823	854.5	846.3	0.6	0.537
x1 = 0.3819	856.7	847.5	0.617	0.549
x1 = 0.4503	857.8	848.7	0.628	0.556
x1 = 0.5438	858.1	849.6	0.645	0.57
x1 = 0.6472	858.7	850.1	0.664	0.584
x1 = 0.7467	859.7	850.7	0.684	0.6
x1 = 0.8487	860.1	851.3	0.704	0.615
x1 = 0.9398	861	851.6	0.722	0.634

refractive index, [2], Standard Abbe refractometry
Settings	x1 = 0.096	x1 = 0.1713	x1 = 0.2823	x1 = 0.3819	x1 = 0.4503	x1 = 0.5438	x1 = 0.6472	x1 = 0.7467	x1 = 0.8487	x1 = 0.9398
303.15 K	1.4821	1.4749	1.4645	1.4554	1.4495	1.4397	1.4293	1.4193	1.41	1.4017
313.15 K	1.4811	1.474	1.4621	1.4523	1.4454	1.4356	1.4248	1.4147	1.4056	1.3984

CC(=O)OCCC(C)C [3-methylbutyl ethanoate] + Cc1cccc(C)c1
[1]
Settings	mass density, 303.15 K [kg/m3]	mass density, 313.15 K [kg/m3]	viscosity, 303.15 K [mPa·s]	viscosity, 313.15 K [mPa·s]
x1 = 0.0877	855.8	847.3	0.561	0.502
x1 = 0.1726	856.5	848.2	0.572	0.51
x1 = 0.3736	858.2	849.5	0.605	0.538
x1 = 0.4421	858.4	849.6	0.619	0.549
x1 = 0.5478	858.8	849.8	0.643	0.568
x1 = 0.657	859.3	850.3	0.666	0.587
x1 = 0.7478	860.1	851.1	0.687	0.603
x1 = 0.8501	861	851.9	0.708	0.623
x1 = 0.9465	861.9	852.8	0.727	0.638

refractive index, [2], Standard Abbe refractometry
Settings	x1 = 0.0877	x1 = 0.1726	x1 = 0.3736	x1 = 0.4421	x1 = 0.5478	x1 = 0.657	x1 = 0.7478	x1 = 0.8501	x1 = 0.9465
303.15 K	1.483	1.4745	1.4549	1.4487	1.4398	1.4297	1.4207	1.4101	1.4014
313.15 K	1.4811	1.4724	1.452	1.4456	1.435	1.4248	1.4157	1.4056	1.3985

CC(=O)OCCC(C)C [3-methylbutyl ethanoate] + Cc1ccccc1C
Settings	mass density, [1] [kg/m3]	refractive index, [2]	viscosity, [1] [mPa·s]
303.15 K, x1 = 0.0856	869.7	1.4903	0.705
303.15 K, x1 = 0.1739	869.5	1.4806	0.707
303.15 K, x1 = 0.2554	868.2	1.4721	0.709
303.15 K, x1 = 0.3538	867.8	1.462	0.712
303.15 K, x1 = 0.445	867.4	1.453	0.714
303.15 K, x1 = 0.5481	866	1.4436	0.718
303.15 K, x1 = 0.6564	865	1.4319	0.722
303.15 K, x1 = 0.7531	864.1	1.4217	0.726
303.15 K, x1 = 0.8542	863.7	1.4113	0.731
303.15 K, x1 = 0.9538	863.2	1.4018	0.738
313.15 K, x1 = 0.0856	861.4	1.488	0.622
313.15 K, x1 = 0.1739	860.8	1.4779	0.623
313.15 K, x1 = 0.2554	859.8	1.4695	0.623
313.15 K, x1 = 0.3538	859.1	1.458	0.624
313.15 K, x1 = 0.445	858.4	1.4486	0.625
313.15 K, x1 = 0.5481	856.7	1.4375	0.627
313.15 K, x1 = 0.6564	855.8	1.4258	0.631
313.15 K, x1 = 0.7531	855.1	1.4157	0.635
313.15 K, x1 = 0.8542	854.7	1.4062	0.64
313.15 K, x1 = 0.9538	853.9	1.3961	0.646

COC(=O)c1ccccc1 [methyl benzoate] + CCc1ccccc1
[1]
Settings	mass density, 303.15 K [kg/m3]	mass density, 313.15 K [kg/m3]	viscosity, 303.15 K [mPa·s]	viscosity, 313.15 K [mPa·s]
x1 = 0.1033	877.9	870.2	0.656	0.583
x1 = 0.1927	898.9	890.3	0.701	0.641
x1 = 0.2952	921.6	912.7	0.784	0.687
x1 = 0.3974	943.6	935	0.857	0.75
x1 = 0.4947	963.3	954.1	0.947	0.824
x1 = 0.5866	982.3	973.7	1.043	0.925
x1 = 0.6963	1000.3	992	1.17	1.048
x1 = 0.7953	1023.3	1010.3	1.308	1.165
x1 = 0.9016	1053.3	1043.3	1.464	1.287
x1 = 0.951	1056.8	1047.4	1.566	1.346

refractive index, [2], Standard Abbe refractometry
Settings	x1 = 0.1033	x1 = 0.1927	x1 = 0.2952	x1 = 0.3974	x1 = 0.4947	x1 = 0.5866	x1 = 0.6963	x1 = 0.7953	x1 = 0.9016	x1 = 0.951
303.15 K	1.4911	1.4933	1.4945	1.4958	1.4968	1.4978	1.5022	1.5054	1.509	1.5092
313.15 K	1.4888	1.49	1.4918	1.4928	1.4937	1.4955	1.4985	1.5014	1.5044	1.5064

COC(=O)c1ccccc1 [methyl benzoate] + Cc1ccc(C)cc1
[1]
Settings	mass density, 303.15 K [kg/m3]	mass density, 313.15 K [kg/m3]	viscosity, 303.15 K [mPa·s]	viscosity, 313.15 K [mPa·s]
x1 = 0.0958	873	864.7	0.616	0.551
x1 = 0.2055	898.1	889.5	0.693	0.609
x1 = 0.3011	919.3	911.1	0.759	0.67
x1 = 0.399	940.9	932.3	0.839	0.728
x1 = 0.4951	961.9	953.1	0.922	0.803
x1 = 0.5988	984.4	975.7	1.033	0.889
x1 = 0.6973	1006.2	1000.4	1.152	0.992
x1 = 0.7846	1024.4	1013	1.269	1.093
x1 = 0.9027	1056	1047.3	1.45	1.253
x1 = 0.948	1059.2	1050.3	1.561	1.322

refractive index, [2], Standard Abbe refractometry
Settings	x1 = 0.0958	x1 = 0.2055	x1 = 0.3011	x1 = 0.399	x1 = 0.4951	x1 = 0.5988	x1 = 0.6973	x1 = 0.7846	x1 = 0.9027	x1 = 0.948
303.15 K	1.492	1.4939	1.4947	1.4959	1.4969	1.4982	1.5012	1.5055	1.5122	1.5104
313.15 K	1.4913	1.4922	1.4932	1.4945	1.4952	1.4961	1.4989	1.5014	1.5088	1.509

COC(=O)c1ccccc1 [methyl benzoate] + Cc1cccc(C)c1
[1]
Settings	mass density, 303.15 K [kg/m3]	mass density, 313.15 K [kg/m3]	viscosity, 303.15 K [mPa·s]	viscosity, 313.15 K [mPa·s]
x1 = 0.1071	878.7	870.6	0.609	0.544
x1 = 0.203	900.2	891.9	0.672	0.598
x1 = 0.3034	922.3	914.2	0.739	0.654
x1 = 0.3924	941.4	933.2	0.824	0.729
x1 = 0.4909	962.7	954.4	0.923	0.804
x1 = 0.5978	985.7	977.1	1.023	0.892
x1 = 0.6867	1004.6	995.8	1.134	0.978
x1 = 0.8125	1029.6	1021.9	1.316	1.122
x1 = 0.8734	1043.8	1034.8	1.403	1.191
x1 = 0.9518	1059.6	1050.7	1.565	1.317

refractive index, [2], Standard Abbe refractometry
Settings	x1 = 0.1071	x1 = 0.203	x1 = 0.3034	x1 = 0.3924	x1 = 0.4909	x1 = 0.5978	x1 = 0.6867	x1 = 0.8125	x1 = 0.8734	x1 = 0.9518
303.15 K	1.4933	1.4943	1.4954	1.4962	1.4973	1.5004	1.5033	1.5069	1.5093	1.5107
313.15 K	1.4911	1.4919	1.4927	1.4933	1.4941	1.496	1.4987	1.502	1.504	1.5064
